# Results published in ChEMBL document CHEMBL4219250, “Kröhnke pyridines: Rapid and facile access to Mcl-1 inhibitors” (Bioorg Med Chem Lett, 2018).
# The source made the active and inactive calls. The calls are words filed in the database; no cut-off is given here.
# Biological target: T1, Induced myeloid leukemia cell differentiation protein Mcl-1 (Homo sapiens, UniProt Q07820)
# Test: Displacement of TAMRA-Bak peptide from His6-MBP-tagged recombinant human MCl-1 (172 to 327 residues) expressed in HMS174 (DE3) cells by fluorescence polarization assay
# T1 sequence (Q07820 whole entry, the tested form may be a part): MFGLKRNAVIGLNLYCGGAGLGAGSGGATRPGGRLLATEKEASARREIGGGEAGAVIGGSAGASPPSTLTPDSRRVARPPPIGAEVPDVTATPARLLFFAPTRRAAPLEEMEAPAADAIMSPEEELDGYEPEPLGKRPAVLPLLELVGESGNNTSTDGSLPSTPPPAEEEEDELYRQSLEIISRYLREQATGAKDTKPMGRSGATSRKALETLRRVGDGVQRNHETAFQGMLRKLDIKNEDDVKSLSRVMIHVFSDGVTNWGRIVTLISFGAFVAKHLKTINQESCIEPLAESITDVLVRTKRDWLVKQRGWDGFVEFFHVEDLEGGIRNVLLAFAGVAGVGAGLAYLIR
row,Compound,Ki [µM]
1,CC(C)Oc1ccc(-c2cc(-c3ccc(Oc4ccccc4)cc3)cc(C(=O)O)n2)cc1,7.33
2,CC(C)Oc1ccc(-c2cc(C(=O)O)nc(-c3ccc(OC(C)C)cc3)c2)cc1,28.8
3,O=C(O)c1cc(-c2ccc(Br)cc2)cc(-c2ccc(Br)cc2)n1,40
4,O=C(O)c1cc(-c2ccc(Br)cc2)cc(-c2ccc(Cl)cc2)n1,40
5,O=C(O)c1cc(-c2ccc(Br)cc2)cc(-c2ccc3c(c2)OCO3)n1,> 100
6,O=C(O)c1cc(-c2ccc(Oc3ccccc3)cc2)cc(-c2ccc3c(c2)OCO3)n1,38.2
7,O=C(O)c1cc(-c2ccc(Oc3ccccc3)cc2)cc(-c2cccc(Br)c2)n1,8.47
8,O=C(O)c1cc(-c2ccc(OCc3ccccc3)cc2)cc(-c2ccc(OCc3ccccc3)cc2)n1,9.22
9,O=C(O)c1cc(-c2ccc(Br)cc2)cc(-c2ccc(OCc3ccccc3)cc2)n1,7.6
10,CC(C)Oc1ccc(-c2cc(C(=O)O)nc(-c3ccc(OC(C)C)cc3OC(C)C)c2)cc1,19.7
11,COc1ccc(-c2cc(-c3ccc(Br)cc3)cc(C(=O)O)n2)cc1,40
12,O=C(O)c1cc(-c2ccc(Oc3ccccc3)cc2)cc(-c2ccccc2Br)n1,10.3
13,O=C(O)c1cc(-c2ccc(Oc3ccccc3)cc2)cc(-c2ccc(OCc3ccccc3)cc2)n1,6.1
14,O=C(O)c1cc(-c2ccc(Oc3ccccc3)cc2)cc(-c2ccccc2)n1,9.24
15,O=C(O)c1cc(-c2ccc(Oc3ccccc3)cc2)cc(-c2ccc([N+](=O)[O-])cc2)n1,13.7
16,O=C(O)c1cc(-c2ccc(Br)cc2)cc(-c2ccccc2)n1,100
17,O=C(O)c1cc(-c2ccc(Oc3ccccc3)cc2)cc(-c2ccc(Br)cc2)n1,7.44
18,O=C(O)c1cc(-c2ccc(Br)cc2)nc(-c2ccc(Oc3ccccc3)cc2)c1,4.43
19,CC(C)Oc1ccc(-c2cc(C(=O)O)nc(-c3ccc(OCc4ccccc4)cc3)c2)cc1,9.77
20,COc1ccc(-c2cc(-c3ccc(Oc4ccccc4)cc3)cc(C(=O)O)n2)cc1,10.9

# Biological target: T1, Induced myeloid leukemia cell differentiation protein Mcl-1
# Test: Binding affinity to 15N-labeled His6-MBP-tagged recombinant human MCl-1 (172 to 327 residues) expressed in HMS174 (DE3) cells by two-dimensional1H-15N HSQC NMR spectra method
# Type: cell-based
row,Compound,Activity
1,O=C(O)c1cc(-c2ccc(Br)cc2)nc(-c2ccc(Oc3ccccc3)cc2)c1,Active
